Source: patent US4552882A, “7-(1-Pyrrolyl) derivatives of 1-ethyl-1,4-dihydro-4-oxoquinoline-3-carboxylic acids and 1-ethyl-1,4-dihydro-4-oxo-1,8-naphthyridine-3-carboxylic acids and their use as antimicrobial agents” (Provesan, SA, priority 1983, dated 1985)
Values after ≈ are worked out from the molar mass of the structure shown.

How the values were obtained:
[1] = tested on: Escherichia coli R-1513; test: MIC in vitro; type: cell-based; conditions: R1513, Dextrose agar, 37° C., 20 hours
Protocol: (G. L. Daquet and Y. A. Chabbect, Techniques en bacteriologie (Bacteriological techniques), vol. 3, Flammarion Medecine Sciences, Paris, 1972 and W. B. Hugo and A. D. Rusell, Pharmaceutical Microbiology, Blackwell Scientific Publications, London, (1977)). Antibiotic medium no. 1 (seed agar) (Oxoid CM 327) Tryptone-soya broth (Oxoid CM 129) Ringer's physiological solution 1/4 (oxoid BR 52) Dextrose agar (BBL-11165) 0.1 N NaOH "Escherichia coli" R-1513 Each of the microorganisms is seeded by streaking in tubes of Antibiotic medium No. 1 (seed agar), which are then incubated at 37° C. for 20 hours. Using a culture loop, the cultures are then seeded in tryptone-soyabroth and incubated at 37° C. for 20 hours. The culture obtained is diluted to 1/4 with Ringer's physiological solution, so as to obtain a standardized suspension of 10^7 -10^9 cfu/ml for each organism. Starting from a solution of 1,000 μg/ml in 0.1 N NaOH, each product is diluted in Dextrose agar (previously melted and maintained at 50° C.), with successive dilutions so as to obtain the following concentrations: 64--32--16--8--4--2--1--0.5--0.25--0.125 μg of derivative/ml medium. For each product, the solution of each concentration is subsequently distributed into Petri dishes 10 cm in diameter, with 10 ml of medium per dish and the same number of dishes as microorganisms to be tested. As soon as the medium has cooled, the dishes are seeded with the inoculations using 0.4 ml of inoculation per dish. They are spread with a Driglasky loop and the supernatant is removed. The seeded dishes are incubated at 37° C. for 20 hours.

[2] = tested on: gram-negative microorganisms; test: in vitro antimicrobial activity compared to pipemidic acid; type: cell-based
Protocol: (G. L. Daquet and Y. A. Chabbect, Techniques en bacteriologie (Bacteriological techniques), vol. 3, Flammarion Medecine Sciences, Paris, 1972 and W. B. Hugo and A. D. Rusell, Pharmaceutical Microbiology, Blackwell Scientific Publications, London, (1977)).
Antibiotic medium no. 1 (seed agar) (Oxoid CM 327)
Tryptone-soya broth (Oxoid CM 129)
Ringer's physiological solution 1/4 (oxoid BR 52) Dextrose agar (BBL-11165) 0.1 N NaOH
Each of the microorganisms is seeded by streaking in tubes of Antibiotic medium No. 1 (seed agar), which are then incubated at 37° C. for 20 hours. Using a culture loop, the cultures are then seeded in tryptone-soyabroth and incubated at 37° C. for 20 hours. The culture obtained is diluted to 1/4 with Ringer's physiological solution, so as to obtain a standardized suspension of 10^7 -10^9 cfu/ml for each organism.
Starting from a solution of 1,000 μg/ml in 0.1 N NaOH, each product is diluted in Dextrose agar (previously melted and maintained at 50° C.), with successive dilutions so as to obtain the following concentrations: 64--32--16--8--4--2--1--0.5--0.25--0.125 μg of derivative/ml medium.
For each product, the solution of each concentration is subsequently distributed into Petri dishes 10 cm in diameter, with 10 ml of medium per dish and the same number of dishes as microorganisms to be tested.
As soon as the medium has cooled, the dishes are seeded with the inoculations using 0.4 ml of inoculation per dish. They are spread with a Driglasky loop and the supernatant is removed. The seeded dishes are incubated at 37° C. for 20 hours.

SMILES | MIC [1] [µg/mL] | activity compared to pipemidic acid [2]
CCn1cc(C(=O)O)c(=O)c2ccc(-n3cccc3)cc21 [Example 1, 7-(1-pyrrolyl)-1-ethyl-1,4-dihydro-4-oxo-3-quinolinecarboxylic acid] | 16 (≈ 56.7 µM) | –
CCn1cc(C(=O)O)c(=O)c2cc(F)c(-n3cccc3)cc21 [Example 2, 6-fluoro-7-(1-pyrrolyl)-1-ethyl-1,4-dihydro-4-oxo-3-quinolinecarboxylic acid] | 4 (≈ 13.3 µM) | –
CCn1cc(C(=O)O)c(=O)c2ccc(-n3cccc3)nc21 [Example 3, 1-ethyl-1,4-dihydro-4-oxo-7-(1-pyrrolyl)-1,8-naphthyridine-3-carboxylic acid] | 16 (≈ 56.5 µM) | activity of the same order as that of pipemidic acid
CCn1cc(C(=O)O)c(=O)c2cc(F)c(-n3cccc3)nc21 [Example 4, 1-ethyl-1,4-dihydro-4-oxo-6-fluoro-7-(1-pyrrolyl)-1,8-naphthyridine-3-carboxylic acid] | 4 (≈ 13.3 µM) | –
CCn1cc(C(=O)O)c(=O)c2cnc(N3CCNCC3)nc21 [Pipemidic acid, reference compound] | 16 (≈ 52.7 µM) | –
